The record followed here is ChEMBL document CHEMBL1132945, “Ethylene glycol and amino acid derivatives of 5-aminolevulinic acid as new photosensitizing precursors of protoporphyrin IX in cells” (J Med Chem, 2000).

For one assay, the system named is A549. Put plainly: Cytotoxicity against A549 cells; No cytotoxicity. The settings on record: Homo sapiens. In kind it is functional, cell-based.
The subject of a further assay is HCEC. As to the kind of experiment: Cytotoxicity against HCEC cells; No cytotoxicity. In kind it is functional, cell-based. The settings on record: Homo sapiens.

Regarding `CCOCCOCCOC(=O)CCC(=O)CN`, the Cytotoxicity result in the assay on A549 and with HCEC was “No cytotoxicity” throughout.

For the compound `CCOCCOCCOCCOC(=O)CCC(=O)CN`, the Cytotoxicity entry with A549 and in the assay with HCEC was “No cytotoxicity” each time.

On to `CCOCCOC(=O)CCC(=O)CN`, for which the Cytotoxicity entry with A549 and in the assay on HCEC was “No cytotoxicity” each time.

Take `COCCOC(=O)CCC(=O)CN`: the Cytotoxicity entry with A549 and in the assay with HCEC was “No cytotoxicity” each time.
